Values quoted from earlier work in patent US12296036B2, “Method for dyeing keratinous material, including the application of an organosilicon compound, a dyeing compound, a sealing reagent and an alkaline pre-treatment agent” (HENKEL AG & CO. KGAA, priority 2021, dated 2025).

Structure (SMILES)	solubility in water (25° C.)	other results
Nc1cc(S(=O)(=O)[O-])cc2cc(S(=O)(=O)[O-])c(N=Nc3ccccc3)c(O)c12.[Na+].[Na+] [Acid Red 33, disodium salt of 5-amino-4-hydroxy-3-(phenylazo)-naphthalene-2,7-disulfonate]	2500 µg/mL	–
O=C([O-])C1=NN(c2ccc(S(=O)(=O)[O-])cc2)C(=O)C1N=Nc1ccc(S(=O)(=O)[O-])cc1.[Na+].[Na+].[Na+] (centres unmarked) [Acid Yellow 23, trisodium salt of 4,5-dihydro-5-oxo-1-(4-sulfophenyl)-4-((4-sulfophenyl)azo)-1H-pyrazole-3-carboxylic acid]	–	solubility in water (in words) (in water at 25° C.): readily soluble
O=C([O-])c1c(Cl)c(Cl)c(Cl)c(Cl)c1-c1c2cc(Br)c(=O)c(Br)c-2oc2c(Br)c([O-])c(Br)cc12.[Na+].[Na+] [Acid Red 92, disodium salt of 3,4,5,6-tetrachloro-2-(1,4,5,8-tetrabromo-6-hydroxy-3-oxanthene-9-yl) benzoic acid]	greater than 10 g/L	–
CCN(Cc1cccc(S(=O)(=O)[O-])c1)c1ccc(C(=C2C=CC(=[N+](CC)Cc3cccc(S(=O)(=O)[O-])c3)C=C2)c2ccccc2S(=O)(=O)[O-])cc1.[Na+].[Na+] [Acid Blue 9]	–	water solubility (25° C.): more than 20 wt. %
O=S(=O)([O-])c1ccc(N=Nc2c(O)ccc3ccccc23)cc1.[Na+] [Acid Orange 7, sodium salt of 4-[(2-hydroxy-1-naphthyl)azo]benzene sulphonate]	more than 7 g/L	–
